Laboratory results published in PMC5218480 (PLoS ONE, 2017).

Tested on: MV-4-11 cells
Assay: Gene expression microarray analysis (Affymetrix PrimeView) and GSEA
Assay type: cell-based, human
Set-up: RFU PODN (11730768_x_at) / Fold change /veh PODN (11730768_x_at) / RFU LINC00158 (11744669_a_at) / Fold change /veh LINC00158 (11744669_a_at) / RFU DUSP10 (11751237_a_at) / Fold change /veh DUSP10 (11751237_a_at) / RFU ID3 (11757404_x_at) / Fold change /veh ID3 (11757404_x_at) / RFU PLEKHG5 (11737974_s_at) / Fold change /veh PLEKHG5 (11737974_s_at) / RFU LRRC4B (11730491_at) / Fold change /veh LRRC4B (11730491_at) / RFU GIMAP4 (11747438_a_at) / Fold change /veh GIMAP4 (11747438_a_at) / RFU KRT8 (11758183_x_at) / Fold change /veh KRT8 (11758183_x_at) / RFU CNN1 (11734310_a_at) / Fold change /veh CNN1 (11734310_a_at) / RFU VPS37D (11726825_at) / Fold change /veh VPS37D (11726825_at) / RFU C10orf10 (11716522_x_at) / Fold change /veh C10orf10 (11716522_x_at) / RFU KIR2DL2 /// KIR2DL4 /// KIR2DL5A /// KIR2DL5B /// KIR2DS1 /// KIR2DS2 /// KIR2DS3 /// KIR2DS4 /// KIR3DL3 /// KIR3DL3 /// KIR3DS1 (11738374_at) / Fold change /veh KIR2DL2 /// KIR2DL4 /// KIR2DL5A /// KIR2DL5B /// KIR2DS1 /// KIR2DS2 /// KIR2DS3 /// KIR2DS4 /// KIR3DL3 /// KIR3DL3 /// KIR3DS1 (11738374_at) / RFU C1QL1 (11718748_at) / Fold change /veh C1QL1 (11718748_at) / RFU TMPRSS4 (11747572_a_at) / Fold change /veh TMPRSS4 (11747572_a_at) / RFU HAMP (11756126_x_at) / Fold change /veh HAMP (11756126_x_at) / RFU RNFT2 (11725882_a_at) / Fold change /veh RNFT2 (11725882_a_at) / RFU NR4A2 (11747474_a_at) / Fold change /veh NR4A2 (11747474_a_at) / RFU ABCC12 (11746883_a_at) / Fold change /veh ABCC12 (11746883_a_at) / RFU TMEM136 (11760407_x_at) / Fold change /veh TMEM136 (11760407_x_at) / RFU CLDN22 /// WWC2 (11732394_at) / Fold change /veh CLDN22 /// WWC2 (11732394_at) / RFU HLA-DPB1 (11760878_x_at) / Fold change /veh HLA-DPB1 (11760878_x_at) / RFU SPINT1 (11716480_a_at) / Fold change /veh SPINT1 (11716480_a_at) / RFU GAP43 (11754022_s_at) / Fold change /veh GAP43 (11754022_s_at) / RFU A4GNT (11735810_at) / Fold change /veh A4GNT (11735810_at) / RFU PRB3 (11715151_x_at) / Fold change /veh PRB3 (11715151_x_at) / RFU TUBB4B (11761932_at) / Fold change /veh TUBB4B (11761932_at) / RFU CAPN14 (11732068_a_at) / Fold change /veh CAPN14 (11732068_a_at) / RFU TMCC2 (11721928_a_at) / Fold change /veh TMCC2 (11721928_a_at) / RFU IRGQ (11745062_a_at) / Fold change /veh IRGQ (11745062_a_at) / RFU FAM174B (11720279_a_at) / Fold change /veh FAM174B (11720279_a_at) / RFU TMPRSS4 (11748680_a_at) / Fold change /veh TMPRSS4 (11748680_a_at) / RFU FAM212B (11763350_a_at) / Fold change /veh FAM212B (11763350_a_at) / RFU PLEKHG5 (11743358_a_at) / Fold change /veh PLEKHG5 (11743358_a_at) / RFU ZSCAN30 (11745921_a_at) / Fold change /veh ZSCAN30 (11745921_a_at) / RFU CMKLR1 (11741424_a_at) / Fold change /veh CMKLR1 (11741424_a_at) / RFU LOC101060620 /// MAPK8IP1 (11723275_at) / Fold change /veh LOC101060620 /// MAPK8IP1 (11723275_at) / RFU SPTSSB (11747773_x_at) / Fold change /veh SPTSSB (11747773_x_at) / RFU PRSS12 (11739890_at) / Fold change /veh PRSS12 (11739890_at) / RFU BIN1 (11741810_x_at) / Fold change /veh BIN1 (11741810_x_at) / RFU WNT11 (11732464_a_at) / Fold change /veh WNT11 (11732464_a_at) / RFU C10orf10 (11716521_a_at) / Fold change /veh C10orf10 (11716521_a_at) / RFU C5orf56 (11738089_at) / Fold change /veh C5orf56 (11738089_at) / RFU CYB561 (11721691_x_at) / Fold change /veh CYB561 (11721691_x_at) / RFU ANKRD19P (11752326_a_at) / Fold change /veh ANKRD19P (11752326_a_at) / RFU OR2T12 /// OR2T33 /// OR2T8 (11738714_s_at) / Fold change /veh OR2T12 /// OR2T33 /// OR2T8 (11738714_s_at) / RFU VCAN (11748164_a_at) / Fold change /veh VCAN (11748164_a_at) / RFU JSRP1 (11732532_at) / Fold change /veh JSRP1 (11732532_at) / RFU KRTAP10-11 (11738290_x_at) / Fold change /veh KRTAP10-11 (11738290_x_at) / RFU MYO3A (11730013_a_at) / Fold change /veh MYO3A (11730013_a_at) / RFU EBF3 (11725865_a_at) / Fold change /veh EBF3 (11725865_a_at) / RFU CAMK2N1 (11719241_x_at) / Fold change /veh CAMK2N1 (11719241_x_at) / RFU C5orf56 (11738088_a_at) / Fold change /veh C5orf56 (11738088_a_at) / RFU OLFML3 (11715873_a_at) / Fold change /veh OLFML3 (11715873_a_at) / RFU LOC100653217 /// NTM (11731650_a_at) / Fold change /veh LOC100653217 /// NTM (11731650_a_at) / RFU MAPK11 (11762145_a_at) / Fold change /veh MAPK11 (11762145_a_at) / RFU FIZ1 (11724087_x_at) / Fold change /veh FIZ1 (11724087_x_at) / RFU OASL (11726364_x_at) / Fold change /veh OASL (11726364_x_at) / RFU SOX15 (11748057_x_at) / Fold change /veh SOX15 (11748057_x_at) / RFU CD79A (11719716_a_at) / Fold change /veh CD79A (11719716_a_at) / RFU HIST1H1D (11736915_at) / Fold change /veh HIST1H1D (11736915_at) / RFU CASKIN2 (11723855_a_at) / Fold change /veh CASKIN2 (11723855_a_at) / RFU LOC730098 (11760151_x_at) / Fold change /veh LOC730098 (11760151_x_at) / RFU OR4N2 (11742367_at) / Fold change /veh OR4N2 (11742367_at) / RFU PRRT2 (11749266_a_at) / Fold change /veh PRRT2 (11749266_a_at) / RFU SNX32 (11753110_a_at) / Fold change /veh SNX32 (11753110_a_at) / RFU CDHR5 (11726645_a_at) / Fold change /veh CDHR5 (11726645_a_at) / RFU RCAN1 (11760418_a_at) / Fold change /veh RCAN1 (11760418_a_at) / RFU FAM167A (11723789_a_at) / Fold change /veh FAM167A (11723789_a_at) / RFU FAM26E (11764081_at) / Fold change /veh FAM26E (11764081_at) / RFU ISYNA1 (11749810_s_at) / Fold change /veh ISYNA1 (11749810_s_at) / RFU ACY1 (11761880_at) / Fold change /veh ACY1 (11761880_at) / RFU 11764098_at / Fold change /veh 11764098_at / RFU SAMD14 (11745864_x_at) / Fold change /veh SAMD14 (11745864_x_at) / RFU NPB (11741838_a_at) / Fold change /veh NPB (11741838_a_at) / RFU TMPRSS6 (11731388_a_at) / Fold change /veh TMPRSS6 (11731388_a_at) / RFU KRTAP10-2 (11738614_at) / Fold change /veh KRTAP10-2 (11738614_at) / RFU ARHGAP8 /// PRR5-ARHGAP8 (11727945_x_at) / Fold change /veh ARHGAP8 /// PRR5-ARHGAP8 (11727945_x_at) / RFU KRTAP5-7 /// NADSYN1 (11734609_at) / Fold change /veh KRTAP5-7 /// NADSYN1 (11734609_at) / RFU RASL12 (11751679_a_at) / Fold change /veh RASL12 (11751679_a_at) / RFU CDKN2B (11736163_a_at) / Fold change /veh CDKN2B (11736163_a_at) / RFU PRF1 (11729649_at) / Fold change /veh PRF1 (11729649_at) / RFU, ZNF638 /// ZNF638-IT1 / Fold change vs veh, ZNF638 /// ZNF638-IT1 / RFU, PANK3 / Fold change vs veh, PANK3 / RFU, SH3YL1 / Fold change vs veh, SH3YL1 / RFU, ZEB2 / Fold change vs veh, ZEB2 / RFU, NRIP1 / Fold change vs veh, NRIP1 / RFU, PTTG1IP / Fold change vs veh, PTTG1IP / RFU, CAPN2 / Fold change vs veh, CAPN2 / RFU, MED14 / Fold change vs veh, MED14 / RFU, SNORA58 / Fold change vs veh, SNORA58 / RFU, C1orf63 / Fold change vs veh, C1orf63 / RFU, LRRFIP1 / Fold change vs veh, LRRFIP1 / RFU, NDUFAF7 / Fold change vs veh, NDUFAF7 / RFU, SLC12A2 / Fold change vs veh, SLC12A2 / RFU, IBTK / Fold change vs veh, IBTK / RFU, ESF1 / Fold change vs veh, ESF1 / Fold change vs veh, TMEM50B / RFU, TAOK1 / Fold change vs veh, TAOK1 / RFU, ACBD3 / Fold change vs veh, ACBD3 / RFU, TMA16 / Fold change vs veh, TMA16 / RFU, RWDD3 / Fold change vs veh, RWDD3 / RFU, BCAT1 / Fold change vs veh, BCAT1 / RFU, EDEM3 / Fold change vs veh, EDEM3 / RFU, TMEM33 / Fold change vs veh, TMEM33 / RFU, WDR75 / Fold change vs veh, WDR75 / RFU, AHCTF1 / Fold change vs veh, AHCTF1 / RFU, TFRC / Fold change vs veh, TFRC / RFU, ZDHHC17 / Fold change vs veh, ZDHHC17 / RFU, NOM1 / Fold change vs veh, NOM1 / RFU, ARL8B / Fold change vs veh, ARL8B / RFU, ZBTB11 / Fold change vs veh, ZBTB11 / RFU, TAMM41 / Fold change vs veh, TAMM41 / RFU, KIAA1704 /// LOC100996395 / Fold change vs veh, KIAA1704 /// LOC100996395 / RFU, ING1 / Fold change vs veh, ING1 / RFU, TRMT61B / Fold change vs veh, TRMT61B / RFU, FUBP3 / Fold change vs veh, FUBP3 / RFU, TP53 / Fold change vs veh, TP53 / RFU, TNKS2 / Fold change vs veh, TNKS2 / RFU, ZFP14 / Fold change vs veh, ZFP14 / RFU, ACTR2 / Fold change vs veh, ACTR2 / RFU, PPP3R1 / Fold change vs veh, PPP3R1 / RFU, PIK3R1 / Fold change vs veh, PIK3R1 / RFU, HNRNPA1 / Fold change vs veh, HNRNPA1 / RFU, RNF170 / Fold change vs veh, RNF170 / RFU, ZNF28 / Fold change vs veh, ZNF28 / RFU, RNGTT / Fold change vs veh, RNGTT / RFU, OGT / Fold change vs veh, OGT / RFU, BRD1 / Fold change vs veh, BRD1 / RFU, MARS / Fold change vs veh, MARS / RFU, ZNF655 / Fold change vs veh, ZNF655 / RFU, FAHD1 / Fold change vs veh, FAHD1 / RFU, BDP1 / Fold change vs veh, BDP1 / RFU, LRRCC1 / Fold change vs veh, LRRCC1 / RFU, ARID1A / Fold change vs veh, ARID1A / RFU, ZNF146 / Fold change vs veh, ZNF146 / RFU, ZNF330 / Fold change vs veh, ZNF330 / RFU, GPN3 / Fold change vs veh, GPN3 / RFU, C9orf123 / Fold change vs veh, C9orf123 / RFU, N4BP2L2 / Fold change vs veh, N4BP2L2 / RFU, ARFIP1 / Fold change vs veh, ARFIP1 / RFU, FAM179B / Fold change vs veh, FAM179B / RFU, BCL10 / Fold change vs veh, BCL10 / RFU, UHRF1BP1L / Fold change vs veh, UHRF1BP1L / RFU, BET1 / Fold change vs veh, BET1 / RFU, CNOT2 / Fold change vs veh, CNOT2 / RFU, ZNF268 / Fold change vs veh, ZNF268 / Fold change vs veh, ZNF507 / RFU, DGCR2 / Fold change vs veh, DGCR2 / RFU, WDSUB1 / Fold change vs veh, WDSUB1 / Fold change vs veh, HSP90B1 /// MIR3652 / RFU, ADSS / Fold change vs veh, ADSS / RFU, GK / Fold change vs veh, GK / RFU, ZNF148 / Fold change vs veh, ZNF148 / RFU, TAF9 / Fold change vs veh, TAF9 / RFU, SLC1A5 / Fold change vs veh, SLC1A5 / RFU, SLMO2 / Fold change vs veh, SLMO2 / RFU, ABCC4 / Fold change vs veh, ABCC4 / RFU, LOC101060439 /// RAP1B / Fold change vs veh, LOC101060439 /// RAP1B / RFU, RFX7 / Fold change vs veh, RFX7 / RFU, GTPBP10 / Fold change vs veh, GTPBP10 / RFU, CNEP1R1 / Fold change vs veh, CNEP1R1 / RFU, BIVM-ERCC5 /// ERCC5 / Fold change vs veh, BIVM-ERCC5 /// ERCC5 / RFU, ILF3 / Fold change vs veh, ILF3 / RFU 11762660_at / Fold change /veh 11762660_at / RFU VCAN (11757783_s_at) / Fold change /veh VCAN (11757783_s_at) / RFU DDX43 (11728927_at) / Fold change /veh DDX43 (11728927_at) / RFU KRT8 (11758188_x_at) / Fold change /veh KRT8 (11758188_x_at) / RFU NKD1 (11759106_at) / Fold change /veh NKD1 (11759106_at) / RFU SRD5A1 (11742802_a_at) / Fold change /veh SRD5A1 (11742802_a_at) / RFU TPSAB1 /// TPSB2 (11721975_s_at) / Fold change /veh TPSAB1 /// TPSB2 (11721975_s_at) / RFU GSTM3 (11746129_a_at) / Fold change /veh GSTM3 (11746129_a_at) / RFU IL23R (11737362_x_at) / Fold change /veh IL23R (11737362_x_at) / RFU TMEM51 (11727254_a_at) / Fold change /veh TMEM51 (11727254_a_at) / RFU PIWIL2 (11732686_x_at) / Fold change /veh PIWIL2 (11732686_x_at) / RFU ORM1 (11744905_x_at) / Fold change /veh ORM1 (11744905_x_at) / RFU CCDC152 (11743942_at) / Fold change /veh CCDC152 (11743942_at) / RFU ECM1 (11717891_a_at) / Fold change /veh ECM1 (11717891_a_at) / RFU IL23R (11748794_a_at) / Fold change /veh IL23R (11748794_a_at) / RFU TNFAIP8L3 (11732012_x_at) / Fold change /veh TNFAIP8L3 (11732012_x_at) / RFU MBOAT4 (11741988_at) / Fold change /veh MBOAT4 (11741988_at) / RFU 11764193_at / Fold change /veh 11764193_at / RFU TMEM53 (11763286_at) / Fold change /veh TMEM53 (11763286_at) / RFU MAGEB2 (11727129_at) / Fold change /veh MAGEB2 (11727129_at) / RFU TMEM200A (11744735_a_at) / Fold change /veh TMEM200A (11744735_a_at) / RFU CCDC152 (11751479_a_at) / Fold change /veh CCDC152 (11751479_a_at) / RFU FAM211A (11726209_a_at) / Fold change /veh FAM211A (11726209_a_at) / RFU RGS16 (11746705_a_at) / Fold change /veh RGS16 (11746705_a_at) / RFU VCAN (11755009_s_at) / Fold change /veh VCAN (11755009_s_at) / RFU RHOB (11743442_s_at) / Fold change /veh RHOB (11743442_s_at) / RFU RGS16 (11720943_a_at) / Fold change /veh RGS16 (11720943_a_at) / RFU RGS16 (11720944_at) / Fold change /veh RGS16 (11720944_at) / RFU, VPS4B / Fold change vs veh, VPS4B / RFU, CREB1 / Fold change vs veh, CREB1 / RFU, DNAJC13 / Fold change vs veh, DNAJC13 / RFU, GNAQ / Fold change vs veh, GNAQ / RFU, CDK5R1 / Fold change vs veh, CDK5R1 / RFU, ZRANB3 / Fold change vs veh, ZRANB3 / RFU, CUL4A / Fold change vs veh, CUL4A / RFU, CCNY / Fold change vs veh, CCNY / RFU, UFL1 / Fold change vs veh, UFL1 / RFU, COG3 / Fold change vs veh, COG3 / RFU, DIAPH2 / Fold change vs veh, DIAPH2 / RFU, SKA2 / Fold change vs veh, SKA2 / RFU, AFF3 / Fold change vs veh, AFF3 / RFU, LMF1 / Fold change vs veh, LMF1 / RFU, IPO11 / Fold change vs veh, IPO11 / RFU, DFFB / Fold change vs veh, DFFB / RFU, FOXP1 / Fold change vs veh, FOXP1 / RFU, CARD8 / Fold change vs veh, CARD8 / RFU, STRN3 / Fold change vs veh, STRN3 / RFU, ADK / Fold change vs veh, ADK / RFU, RASSF2 / Fold change vs veh, RASSF2 / RFU, WIPF1 / Fold change vs veh, WIPF1 / RFU, LARP1B / Fold change vs veh, LARP1B / RFU, RASA1 / Fold change vs veh, RASA1 / RFU, RB1 / Fold change vs veh, RB1 / RFU, PPFIA1 / Fold change vs veh, PPFIA1 / RFU, MAT2A / Fold change vs veh, MAT2A / RFU, CCT5 / Fold change vs veh, CCT5 / RFU, WDR92 / Fold change vs veh, WDR92 / RFU, CUX1 / Fold change vs veh, CUX1 / RFU, TTC7A / Fold change vs veh, TTC7A / RFU, TMEM135 / Fold change vs veh, TMEM135 / RFU, DEPTOR / Fold change vs veh, DEPTOR / RFU, CPM / Fold change vs veh, CPM / RFU, DNAJB6 / Fold change vs veh, DNAJB6 / RFU, CACNA2D3 / Fold change vs veh, CACNA2D3 / RFU, DTX4 / Fold change vs veh, DTX4 / RFU, TFCP2 / Fold change vs veh, TFCP2 / RFU, GMCL1 /// GMCL1P1 / Fold change vs veh, GMCL1 /// GMCL1P1 / RFU, AEBP2 / Fold change vs veh, AEBP2 / RFU, SNHG1 /// SNORD22 /// SNORD25 /// SNORD26 /// SNORD27 /// SNORD28 /// SNORD29 /// SNORD31 / Fold change vs veh, SNHG1 /// SNORD22 /// SNORD25 /// SNORD26 /// SNORD27 /// SNORD28 /// SNORD29 /// SNORD31 / Fold change (Aza/veh), C12orf56 (ProbeSet 11735607_a_at) / Fold change (ACY-1035/veh), C12orf56 (ProbeSet 11735607_a_at) / Fold change (Aza/veh), FGFR1OP (ProbeSet 11751329_s_at) / Fold change (ACY-1035/veh), FGFR1OP (ProbeSet 11751329_s_at) / Fold change (Aza/veh), VPS36 (ProbeSet 11739960_a_at) / Fold change (ACY-1035/veh), VPS36 (ProbeSet 11739960_a_at) / RFU SYPL1 (11715823_x_at) / Fold change /veh SYPL1 (11715823_x_at) / RFU IGFBP7 (11715501_s_at) / Fold change /veh IGFBP7 (11715501_s_at) / RFU REEP3 (11722064_at) / Fold change /veh REEP3 (11722064_at) / RFU IGLL1 (11728026_x_at) / Fold change /veh IGLL1 (11728026_x_at): dose or concentration left out as unconfirmed
Settings: MV-4-11 cells, 48 hours

SMILES: Nc1ncn([C@@H]2O[C@H](CO)[C@@H](O)[C@H]2O)c(=O)n1 [azacitidine]
- RFU CD79A (11719716_a_at): 8.73 RFU
